# Key:
# Assay type in all cases: in vivo, swine
# [1] = tested on: ovariectomized estrogen primed gilt; assay: Dose response study of LH release in ovariectomized estrogen primed gilt model (RIA); conditions: single injection of 50 mcg in SAIB
# Description: A dose response study was performed using deslorelin in SAIB in an ovariectomized estrogen primed gilt model (Barb, et al. (1999) Proceed. Int'l. Symp. Control. Rel. Bioact. Mater., 26).
# mature postpartum sows = assay: Deslorelin injected intravulvar at estrus detection with AI breeding in mature postpartum sows (Example 2)
# Description: Sows were assigned randomly in blocks of two to either control or to be injected intravulvar with 50 mcg of deslorelin in SAIB at the time of estrus detection for sows first detected in estrus in the a.m. and 12 hours later for those first detected in estrus in the p.m. Treated animals were bred AI upon detected estrus and again 24 hours later if still in estrus. Controls received a saline injection on first detected estrus behavior estrus detection and were bred according to the farm's normal procedures.
# postpartum sows [2] = assay: Timed deslorelin injection 96 hours post-weaning and single timed insemination without estrus detection (Example 3)
# Description: (§1) Approximately 170 postpartum sows were randomly divided into two equal groups comprised of controls and treated. Following weaning, the controls were detected for estrus and bred following the normal standard operating procedures for the farms on which they resided. The treated sows received a 50 mcg dose of deslorelin in SAIB at 96 hours post-weaning and were bred with a single insemination 28+/−2 hours later with no regard to estrus detection. The sows were examined for pregnancy by ultrasound at 21 days and slaughtered around 28 days post breeding. The entire reproductive tract was removed and corpora lutea and embryos were counted.
# postpartum sows [3] = assay: Litter size after deslorelin treatment in postpartum sows at three farm sites (Example 4); conditions: Tables 3 to 5, regardless of estrus detection
# Excerpt: Postpartum sows were randomly distributed into three different groups comprised of Controls, Treatment 1, and Treatment 2, with the exception of Site 3, which was divided into two groups, Control and Treatment 2. Control sows were detected for estrus following weaning, and bred following the normal standard operating procedures for the farms on which they resided. Treatment 1 sows were detected for estrus following weaning, and received a 50 mcg dose of deslorelin in the morning when standing and were bred by AI 4 hours later and again at 24+/−2 hours later. Treatment 2 sows received a 50 mcg dose of deslorelin in SAIB at 96 or 120 hours post-weaning and were bred with a single insemination 28+/−2 hours later with no regard to estrus detection.
# postpartum sows [4] = assay: Pregnancy rate after deslorelin treatment in sows, summary of Tables 2 to 5; conditions: Table 6
# Description: as §1, with “counted. Postpartum sows were randomly distributed into three different groups comprised of Controls, Treatment 1, and Treatment 2, with the exception of Site 3, which was divided into two groups, Control and Treatment 2. Control sows were detected for estrus following weaning, and bred following the normal standard operating procedures for the farms on which they resided. Treatment 1 sows were detected for estrus following weaning, and received a 50 mcg dose of deslorelin in the morning when standing and were bred by AI 4 hours later and again at 24+/−2 hours later. Treatment 2 sows received a 50 mcg dose of deslorelin in SAIB at 96 or 120 hours post-weaning and were bred with a single insemination 28+/−2 hours later with no regard to estrus detection. […]” for “counted.”
# [5] = 50 μg deslorelin acetate intravulvar at first estrus detection, AI, AI again if in estrus next day
smiles,measurement,setting,value
"CCNC(=O)[C@@H]1CCCN1C(=O)[C@H](CCCN=C(N)N)NC(=O)[C@H](CC(C)C)NC(=O)[C@@H](Cc1c[nH]c2ccccc12)NC(=O)[C@H](Cc1ccc(O)cc1)NC(=O)[C@H](CO)NC(=O)[C@H](Cc1c[nH]c2ccccc12)NC(=O)[C@H](Cc1cnc[nH]1)NC(=O)[C@@H]1CCC(=O)N1 [Deslorelin, deslorelin]",Time of LH return to base level,[1],≤ 18 h
same,LH peak relative to normal value,[1]; normal value from Hansel et al. 1973,about twice normal value
same,Length of Estrus,mature postpartum sows; [5],40.81 h
same,Pregnancy Rate,mature postpartum sows; [5],91%
same,"Pregnancy rates, Control versus Treated",mature postpartum sows; 50 μg intravulvar at first estrus detection,no significant difference
same,Pregnancy Rate,"postpartum sows [2]; 50 mcg in SAIB 96 hours post-weaning, single insemination 28+/-2 hours later, no estrus detection",71%
same,Sows Pregnant,"postpartum sows [2]; 50 mcg in SAIB 96 hours post-weaning, single insemination 28+/-2 hours later, 84 sows in group, ultrasound at 21 days",60
same,Embryo Survival,"postpartum sows [2]; 50 mcg in SAIB 96 hours post-weaning, slaughter around 28 days post breeding",64%
same,Pregnancy rates,"postpartum sows [2]; single timed injection post-weaning, single timed insemination, no estrus detection",normal pregnancy rates were attained
same,Litter sizes,postpartum sows [3],normal litter sizes
same,Pregnancy rates,postpartum sows [4],normal pregnancy rates were obtained

# Source: patent publication US7205281B2, “Process for the synchronization of ovulation for timed breeding without heat detection” (priority 2003, dated 2007)
